IC50 data for 15 compounds are collected here from patent publication US8975276B2, “Inhibitors of PDE10” (Bristol-Myers Squibb Company, priority 2011, dated 2015).

The target of the experiment is PDE10 (Homo sapiens (Human), UniProt Q9Y233). In words: LE_PDE10A inhibition assay (scintillation proximity assay, cAMP hydrolysis). The format is biochemical. The conditions noted are these: SPA, 3H-cAMP substrate at Km 25 nM. How it is done:
LE_PDE10A Inhibition Assay:
The PDE10 inhibition assay in 384-well plates was conducted to identify substances for the inhibition of cyclic nucleotide hydrolysis by the PDE10 enzyme. […] PDE10 activity was measured using Scintillation Proximity Assay (SPA)-based methods. PDE10 catalyses the hydrolysis of the intracellular messenger adenosine […] (cAMP) to the non-cyclic adenosine 5′-monophosphate (AMP). The SPA assay was based upon the selective interaction of the tritiated product with yttrium oxide LEADseeker beads.
The assay buffer contained 25 mM HEPES pH 7.4, 2.5 mM Magnesium Chloride and 0.1% BSA. […] The reaction was terminated by adding 6 μL of 5 mg/mL of yttrium oxide LEADseeker beads. The beads were allowed to settle for 3 hours before plates were read in the LEEDSeaker for 6 minutes. The measured signal could be converted to activity relative to an […] control (100%). IC50 values were calculated by using in-house data software and IC50 values were generated by nonlinear regression analysis. (Bristol-Myers Squibb Company, Wallingford, Conn.).
A general note: In a scintillation proximity assay essentially only radioactivity close to the scintillant gives light.

Counter-ions that a name gives are not always drawn. Like-named read-outs stand apart in the source and are kept apart here.

Chain of PDE10 (Q9Y233 whole entry): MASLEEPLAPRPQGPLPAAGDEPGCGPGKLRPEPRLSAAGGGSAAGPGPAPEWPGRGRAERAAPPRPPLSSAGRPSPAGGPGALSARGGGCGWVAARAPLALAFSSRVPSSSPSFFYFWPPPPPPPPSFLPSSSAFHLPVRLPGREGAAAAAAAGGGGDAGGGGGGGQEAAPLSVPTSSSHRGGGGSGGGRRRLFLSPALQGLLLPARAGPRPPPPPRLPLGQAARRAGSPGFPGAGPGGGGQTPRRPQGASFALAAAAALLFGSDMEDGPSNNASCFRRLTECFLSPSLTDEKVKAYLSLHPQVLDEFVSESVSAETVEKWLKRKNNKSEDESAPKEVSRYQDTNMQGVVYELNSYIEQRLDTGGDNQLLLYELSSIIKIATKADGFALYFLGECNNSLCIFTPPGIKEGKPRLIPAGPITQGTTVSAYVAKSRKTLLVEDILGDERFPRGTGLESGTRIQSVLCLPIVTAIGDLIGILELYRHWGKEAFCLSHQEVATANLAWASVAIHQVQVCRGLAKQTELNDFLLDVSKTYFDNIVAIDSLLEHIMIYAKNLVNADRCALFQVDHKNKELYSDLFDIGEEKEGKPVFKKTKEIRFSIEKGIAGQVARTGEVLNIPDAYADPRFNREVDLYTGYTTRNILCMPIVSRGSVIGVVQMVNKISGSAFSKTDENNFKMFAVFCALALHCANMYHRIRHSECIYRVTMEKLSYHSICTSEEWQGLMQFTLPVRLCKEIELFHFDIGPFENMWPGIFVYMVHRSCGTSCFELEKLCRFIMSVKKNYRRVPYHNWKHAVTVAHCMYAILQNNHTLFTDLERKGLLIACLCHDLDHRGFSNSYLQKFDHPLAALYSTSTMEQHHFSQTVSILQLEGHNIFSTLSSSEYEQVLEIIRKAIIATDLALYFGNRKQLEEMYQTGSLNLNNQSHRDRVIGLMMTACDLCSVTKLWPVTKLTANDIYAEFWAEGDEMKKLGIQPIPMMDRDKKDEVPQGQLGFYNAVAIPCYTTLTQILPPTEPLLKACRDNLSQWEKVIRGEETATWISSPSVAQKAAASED

The term IC50 denotes the midpoint of a concentration-inhibition curve. `Cc1ncc(C)n2nc(-c3ccn4cc(-c5ccc(Cl)cc5)nc4c3)nc12` [Example 6, 2-(2-(4-chlorophenyl)imidazo[1,2-a]pyridin-7-yl)-5,8-dimethyl-[1,2,4]triazolo[1,5-a]pyrazine]: the IC50 (read-out: PDE10 IC50 (Range)) is 1 to 100 nM.

As to `Cc1ncc(C)n2nc(-c3ccn4cc(-c5cccc(C6CC6)c5)nc4c3)nc12` [Example 26, 2-(2-(3-cyclopropylphenyl)imidazo[1,2-a]pyridin-7-yl)-5,8-dimethyl-1,2,41-triazolo[1,5-a]pyrazine], under “read-out: PDE10 IC50”, the IC50 worked out at 0.33 nM.

For `Cc1nccn2nc(-c3ccn4cc(-c5ccccn5)nc4c3)nc12` [Example 20, 8-methyl-2-(2-(pyridin-2-yl)imidazo[1,2-a]pyridin-7-yl)-[1,2,4]triazolo[1,5-a]pyrazine, 2 HCl], under “read-out: PDE10 IC50 (Range)”, the IC50 fell in the range of 1 to 100 nM.

With `Cc1ncc(C)n2nc(-c3ccn4cc(-c5ccccn5)nc4c3)nc12` [Example 14, 5,8-dimethyl-2-(2-(pyridin-2-yl)imidazo[1,2-a]pyridin-7-yl)-[1,2,4]triazolo[1,5-a]pyrazine], the IC50 (read-out: PDE10 IC50) worked out at 0.16 nM. For the compound `Cc1nccn2nc(-c3ccn4c(C)c(-c5ccccc5)nc4c3)nc12` [Example 29, 8-methyl-2-(3-methyl-2-phenylimidazo[1,2-a]pyridin-7-yl)-[1,2,4]triazolo[1,5-a]pyrazine], the IC50 reads like this: (read-out: PDE10 IC50) 2.4 nM; (read-out: PDE10 IC50 (Range)) 1 to 100 nM. As to `Cc1ccc(-c2cn3ccc(-c4nc5c(C)ncc(C)n5n4)cc3n2)c(C)c1` [Example 7, 2-(2-(2,4-dimethylphenyl)imidazo[1,2-a]pyridin-7-yl)-5,8-dimethyl-[1,2,4]triazolo[1,5-a]pyrazine], the IC50 (read-out: PDE10 IC50) stood at 11 nM and the IC50 (read-out: PDE10 IC50 (Range)) was in the range of 1 to 100 nM. The corresponding values for `Cc1ncc(C)n2nc(-c3ccn4cc(C5CC5)nc4c3)nc12` [Example 21, 2-(2-cyclopropylimidazo[1,2-a]pyridin-7-yl)-5,8-dimethyl-[1,2,4]triazolo[1,5-a]pyrazine] are 26 nM and 1 to 100 nM.

`Cc1nccn2nc(-c3ccn4cc(-c5cccc(Br)c5)nc4c3)nc12` [Example 23, 2-(2-(3-bromophenyl)imidazo[1,2-a]pyridin-7-yl)-8-methyl-[1,2,4]triazolo[1,5-a]pyrazine]: the IC50 (read-out: PDE10 IC50 (Range)) was in the range of 1 to 100 nM. As to `Cc1ncc(C)n2nc(-c3ccn4cc(-c5ccc(C#N)cc5)nc4c3)nc12` [Example 16, 4-(7-(5,8-dimethyl-[1,2,4]triazolo[1,5-a]pyrazin-2-yl)-imidazo[1,2-a]pyridin-2-yl)benzonitrile], the IC50 (read-out: PDE10 IC50 (Range)) lay in the range of 1 to 100 nM. `Cc1nccn2nc(-c3ccn4cc(-c5cccc(C6CC6)c5)nc4c3)nc12` [Example 24, 2-(2-(3-cyclopropylphenyl)imidazo[1,2-a]pyridin-7-yl)-8-methyl-[1,2,4]triazolo[1,5-a]pyrazine]: under “read-out: PDE10 IC50 (Range)”, the IC50 fell in the range of 1 to 100 nM. For `Cc1ncc(C)n2nc(-c3cc4nc(-c5ccccc5)cn4cc3N3CCCC3)nc12` [Example 17, 5,8-dimethyl-2-(2-phenyl-6-(pyrrolidin-1-yl)imidazo[1,2-a]pyridin-7-yl)-[1,2,4]triazolo[1,5-a]pyrazine], the IC50 is, setting by setting: (read-out: PDE10 IC50) 3.5 nM; (read-out: PDE10 IC50 (Range)) 1 to 100 nM.

For `Cc1nccn2nc(-c3ccn4cc(-c5ccccc5)nc4c3)nc12` [Example 19, 8-methyl-2-(2-phenylimidazo[1,2-a]pyridin-7-yl)-1,2,41-triazolo[1,5-a]pyrazine, 2 HCl], the IC50 (read-out: PDE10 IC50 (Range)) lay within 1 to 100 nM. With `Cc1ncc(C)n2nc(-c3ccn4cc(-c5cnccn5)nc4c3)nc12` [Example 22, 5,8-dimethyl-2-(2-(pyrazin-2-yl)imidazo[1,2-a]pyridin-7-yl)-[1,2,4]triazolo[1,5-a]pyrazine], the IC50 (read-out: PDE10 IC50 (Range)) was in the range of 1 to 100 nM. Regarding `Cc1ncc(C)n2nc(-c3ccn4cc(-c5cccc(N6CC[C@H](F)C6)c5)nc4c3)nc12` [Example 28, (S)-2-(2-(3-(3-fluoropyrrolidin-1-yl)phenyl)imidazo[1,2-a]pyridin-7-yl)-5,8-dimethyl-[1,2,4]triazolo[1,5-a]pyrazine], the IC50 (read-out: PDE10 IC50) is 0.16 nM.

As for `Cc1ncc(C)n2nc(-c3ccn4cc(-c5ccccc5)nc4c3)nc12` [Example 1, 5,8-dimethyl-2-(2-phenylimidazo[1,2-a]pyridin-7-yl)-[1,2,4]triazolo[1,5-a]pyrazine], the IC50 (read-out: PDE10 IC50) was determined as 0.1 nM.
